Consider 17 molecules from patent US10815200B2, “18F—tagged inhibitors of prostate specific membrane antigen (PSMA) and their use as imaging agents for prostate cancer” (DEUTSCHES KREBSFORSCHUNGSZENTRUM, priority 2015, dated 2020).

In one test the target is T1, PSMA (Homo sapiens, UniProt Q04609).
T1 construct: host or cells: LNCaP cells
The experiment in a line: Competitive cell binding assay (binding affinity) on LNCaP cells against 68Ga-labeled [Glu-urea-Lys(Ahx)]2-HBED-CC. Particulars: competition with 68Ga-labeled [Glu-urea-Lys(Ahx)]2-HBED-CC, non-radioactive reference compounds. Here is the method: For binding studies and in vivo experiments LNCaP cells (metastatic lesion of human prostatic adenocarcinoma, ATCC CRL-1740) were cultured in RPMI medium supplemented with 10% fetal calf serum and Glutamax (PAA, Austria). During cell culture, cells were grown at 37° C. in an incubator with humidified air, equilibrated with 5% CO2. The cells were harvested using trypsin-ethylenediaminetetraacetic acid (trypsin-1.5 EDTA; 0.25% trypsin, 0.02% EDTA, all from PAA, Austria) and washed with PBS.
The competitive cell binding assay and internalization experiments were performed as described previously (Eder et al. Bioconjugate Chem. 2012, 23 (4), 688-697). Briefly, the respective cells (10^5 per well) were incubated with the radioligand (^68Ga-labeled [Glu-urea-Lys(Ahx)]2-HBED-CC (Schafer et al. EJNMMI Research 2012, 2:23 doi:10.1186/2191-219X-2-23))) in the presence of 12 different concentrations of analyte (0-5000 nM, 100 μL/well). After incubation, washing was carried out using a multiscreen vacuum manifold (Millipore, Billerica, Mass.). Cell-bound radioactivity was measured using a gamma counter (Packard Cobra II, GMI, Minnesota, USA). The 50% inhibitory concentration (IC50) was calculated by fitting the data using a nonlinear regression algorithm (GraphPad Software). Experiments were performed three times. Reference is made to Table A below.

The subject of another test is LNCaP cells. As to the kind of experiment: Specific cell uptake and internalization in LNCaP cells. Particulars: for Cell surface / Internalised: 30 nM radiolabeled compound, 45 min, 37° C., specific (PMPA block); for Internalized fraction: (Internalized activity/total activity)*100. The test is classed as cell-based, human. The protocol:
During cell culture, cells were grown at 37° C. in an incubator with humidified air, equilibrated with 5% CO2. […] To determine the specific cell uptake and internalization, 10^5 cells were seeded in poly-L-lysine coated 24-well cell culture plates 24 h before incubation. After washing, the cells were incubated with 30 nM of the radiolabeled compounds for 45 min at 37° C. […] Cellular uptake was terminated by washing 3 times with 1 mL of ice-cold PBS. […] The cells were washed with 1 mL of ice-cold PBS and lysed using 0.3 N NaOH (0.5 mL). The surface-bound and the internalized fractions were measured in a gamma counter. The cell uptake was calculated as percent of the initially added radioactivity bound to 10^5 cells [% ID/10^5 cells].

SMILES strings stand for the structures. Square brackets hold non-standard residues; d marks the D form. Peptide text beside a SMILES is read from it. * marks the point of attachment. X1 = O=C(O)CCC(NC(=O)NC(CCCCN*)C(=O)O)C(=O)O; 2Nal = N[CH](Cc1ccc2ccccc2c1)C(=O)O; Nicotinoyl(6-F) = O=C(c1ccc(F)nc1)*; 4Amb = NCc1ccc(C(=O)O)cc1

T1 sequence (Q04609 whole entry): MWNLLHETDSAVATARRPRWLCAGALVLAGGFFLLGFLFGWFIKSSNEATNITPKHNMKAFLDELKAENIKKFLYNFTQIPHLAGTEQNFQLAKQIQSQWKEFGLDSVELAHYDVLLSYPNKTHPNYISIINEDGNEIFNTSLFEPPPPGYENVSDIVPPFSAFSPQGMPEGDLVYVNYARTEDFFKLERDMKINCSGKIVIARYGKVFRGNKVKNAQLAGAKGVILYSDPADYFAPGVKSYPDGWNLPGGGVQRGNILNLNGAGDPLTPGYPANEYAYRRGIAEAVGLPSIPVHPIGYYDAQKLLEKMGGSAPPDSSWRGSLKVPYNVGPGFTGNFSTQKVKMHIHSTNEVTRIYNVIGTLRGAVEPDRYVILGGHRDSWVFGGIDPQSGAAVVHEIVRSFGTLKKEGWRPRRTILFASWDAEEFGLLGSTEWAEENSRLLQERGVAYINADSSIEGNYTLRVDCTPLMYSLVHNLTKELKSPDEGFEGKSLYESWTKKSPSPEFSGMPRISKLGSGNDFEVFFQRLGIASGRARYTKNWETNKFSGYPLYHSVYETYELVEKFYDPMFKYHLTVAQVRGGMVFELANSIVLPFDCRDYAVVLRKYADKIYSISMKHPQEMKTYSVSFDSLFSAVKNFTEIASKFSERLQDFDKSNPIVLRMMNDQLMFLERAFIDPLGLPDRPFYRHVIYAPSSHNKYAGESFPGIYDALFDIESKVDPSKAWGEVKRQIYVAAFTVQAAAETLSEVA

Regarding `O=C(O)CCC(NC(=O)NC(CCCCNC(=O)C(Cc1ccc2ccccc2c1)NC(=O)c1ccc(CNC(=O)C(CCC(=O)O)NC(=O)C(CCC(=O)O)NC(=O)c2ccc(F)nc2)cc1)C(=O)O)C(=O)O` (stereo not drawn) [PSMA-1007, (Glu)-(Urea)-(Lys)-(2-Nal)-(Bn)-(Glu)-(Glu)-FN], on PSMA, the IC50 (commonly the concentration needed to halve the response being measured) amounted to 5 nM.

Consider `O=C(O)CC[C@@H](NC(=O)N[C@H](CCCCNC(=O)[C@@H](Cc1ccc2ccccc2c1)NC(=O)[C@@H](CCC(=O)O)NC(=O)[C@@H](CCC(=O)O)NC(=O)c1ccnc(F)c1)C(=O)O)C(=O)O` [PSMA-1011, (Glu)-(Urea)-(Lys)-(2-Naphthylalanine)-(Glu)-(Glu)-FN], for which the IC50 at PSMA came out at 7 nM.

In the test on LNCaP cells, `O=C(O)CC[C@@H](NC(=O)N[C@H](CCCCNC(=O)[C@@H](Cc1ccc2ccccc2c1)NC(=O)[C@@H](CCC(=O)O)NC(=O)[C@@H](CCC(=O)O)NC(=O)c1ccnc([18F])c1)C(=O)O)C(=O)O` [PSMA-1011, (Glu)-(Urea)-(Lys)-(2-Naphthylalanine)-(Glu)-(Glu)-FN] gave a Cell surface of 4.1 % ID/10^5 cells, an Internalised of 0.7 % ID/10^5 cells and an Internalized fraction of 15%.

`O=C(O)CC[C@H](NC(=O)N[C@@H](CCCCNC(=O)[C@@H](Cc1ccc2ccccc2c1)NC(=O)CC[C@@H](NC(=O)[C@@H](CCC(=O)O)NC(=O)c1ccnc(F)c1)C(=O)O)C(=O)O)C(=O)O` [PSMA-1012, (Glu)-(Urea)-(Lys)-(2-Naphthylalanine)-(γGlu)-(Glu)-FN]: at PSMA, the IC50 was 7 nM.

In the test on LNCaP cells, `O=C(O)CC[C@H](NC(=O)N[C@@H](CCCCNC(=O)[C@@H](Cc1ccc2ccccc2c1)NC(=O)CC[C@@H](NC(=O)[C@@H](CCC(=O)O)NC(=O)c1ccnc([18F])c1)C(=O)O)C(=O)O)C(=O)O` [PSMA-1012, (Glu)-(Urea)-(Lys)-(2-Naphthylalanine)-(γGlu)-(Glu)-FN] yielded a Cell surface of 6.9 % ID/10^5 cells, an Internalised of 2.7 % ID/10^5 cells and an Internalized fraction of 28%.

On to `O=C(O)CC[C@@H](NC(=O)N[C@H](CCCCNC(=O)[C@@H](Cc1ccc2ccccc2c1)NC(=O)c1ccc(CNC(=O)[C@@H](CCC(=O)O)NC(=O)c2ccnc(F)c2)cc1)C(=O)O)C(=O)O` [PSMA-1015, (Glu)-(Urea)-(Lys)-(2-Nal)-(Bn)-(Glu)-FN], for which the IC50 at PSMA was 4 nM.

Turning to `O=C(O)CC[C@@H](NC(=O)N[C@H](CCCCNC(=O)[C@@H](Cc1ccc2ccccc2c1)NC(=O)c1ccc(CNC(=O)[C@@H](CCC(=O)O)NC(=O)c2ccnc([18F])c2)cc1)C(=O)O)C(=O)O` [PSMA-1015, (Glu)-(Urea)-(Lys)-(2-Nal)-(Bn)-(Glu)-FN], in the test with LNCaP cells, the Cell surface turned out to be 14.3 % ID/10^5 cells, the Internalised is 6.0 % ID/10^5 cells and the Internalized fraction was found to be 30%.

As to `O=C(O)CCC(NC(=O)NC(CCCCNC(=O)C(Cc1ccc2ccccc2c1)NC(=O)c1ccc(CNC(=O)C(CCC(=O)O)NC(=O)C(CCC(=O)O)NC(=O)C(CCC(=O)O)NC(=O)c2ccc([18F])nc2)cc1)C(=O)O)C(=O)O` (stereo not drawn) [PSMA-1018, (Glu)-(Urea)-(Lys)-(2-Nal)-(Bn)-(Glu)-(Glu)-(Glu)-FN], in the test on LNCaP cells, the Cell surface is recorded as 1.1 % ID/10^5 cells, the Internalised turned out to be 0.9 % ID/10^5 cells and the Internalized fraction is 45%.

For `O=C(O)CCC(NC(=O)NC(CCCCNC(=O)C(Cc1ccc2ccccc2c1)NC(=O)c1ccc(CNC(=O)C(CCC(=O)O)NC(=O)C(CCC(=O)O)NC(=O)C(CCC(=O)O)NC(=O)c2ccc(F)nc2)cc1)C(=O)O)C(=O)O` (stereo not drawn) [PSMA-1018, (Glu)-(Urea)-(Lys)-(2-Nal)-(Bn)-(Glu)-(Glu)-(Glu)-FN] ({Nicotinoyl(6-F)}-EEE[4Amb][2Nal]-X1; configuration not given here), the IC50 on PSMA came out at 14 nM.

Consider `O=C(O)CCC(NC(=O)NC(CCCCNC(=O)C(Cc1ccc2ccccc2c1)NC(=O)C1CCC(CNC(=O)C(CCC(=O)O)NC(=O)C(CCC(=O)O)NC(=O)c2ccc(F)nc2)CC1)C(=O)O)C(=O)O` (stereo not drawn) [PSMA-1019, (Glu)-(Urea)-(Lys)-(2-Nal)-(Chx)-(Glu)-(Glu)-FN], for which the IC50 on PSMA stood at 12 nM.

For the molecule `O=C(O)CCC(NC(=O)NC(CCCCNC(=O)C(Cc1ccc2ccccc2c1)NC(=O)C1CCC(CNC(=O)C(CCC(=O)O)NC(=O)C(CCC(=O)O)NC(=O)c2ccc([18F])nc2)CC1)C(=O)O)C(=O)O` (stereo not drawn) [PSMA-1019, (Glu)-(Urea)-(Lys)-(2-Nal)-(Chx)-(Glu)-(Glu)-FN], in the test with LNCaP cells, the Cell surface is on record as 5.5 % ID/10^5 cells, the Internalised stood at 1.9 % ID/10^5 cells and the Internalized fraction is 26%.

Consider `O=C(O)CCC(NC(=O)NC(CCCCNC(=O)C(Cc1ccc2ccccc2c1)NC(=O)CCC(NC(=O)C(CCC(=O)O)NC(=O)C(CCC(=O)O)NC(=O)c1ccc([18F])nc1)C(=O)O)C(=O)O)C(=O)O` (stereo not drawn) [PSMA-1020, (Glu)-(Urea)-(Lys)-(2-Nal)-(γGlu)-(Glu)-(Glu)-FN], for which, in the test on LNCaP cells, the Cell surface amounted to 6.8 % ID/10^5 cells, the Internalised came out at 1.5 % ID/10^5 cells and the Internalized fraction turned out to be 18%.

In the test with LNCaP cells, `O=C(O)CCC(NC(=O)NC(CCCCNC(=O)C(Cc1ccc2ccccc2c1)NC(=O)CCC(NC(=O)CCC(NC(=O)c1ccc([18F])nc1)C(=O)O)C(=O)O)C(=O)O)C(=O)O` (stereo not drawn) [PSMA-1022, (Glu)-(Urea)-(Lys)-(2-Nal)-(γGlu)-(γGlu)-FN] gave a Cell surface of 3.5 % ID/10^5 cells, an Internalised of 1.0 % ID/10^5 cells and an Internalized fraction of 22%.

For `O=C(O)CCC(NC(=O)NC(CCCCNC(=O)C(Cc1ccc2ccccc2c1)NC(=O)c1ccc(CNC(=O)C(CCC(=O)O)NC(=O)C(CCC(=O)O)NC(=O)c2ccc([18F])nc2)cc1)C(=O)O)C(=O)O` [PSMA-1023, (Glu)-(Urea)-(Lys)-(2-Nal)-(Bn)-(D-Glu)-(D-Glu)-FN], in the test on LNCaP cells, the Cell surface is 6.5 % ID/10^5 cells, the Internalised was 3.2 % ID/10^5 cells and the Internalized fraction is on record as 33%.

For the molecule `O=C(O)CCC(NC(=O)NC(CCCCNC(=O)C(Cc1ccc2ccccc2c1)NC(=O)c1ccc(CNC(=O)C(CCC(=O)O)NC(=O)C(CCC(=O)O)NC(=O)c2ccc([18F])nc2)cc1)C(=O)O)C(=O)O` [PSMA-1024, (Glu)-(Urea)-(Lys)-(2-Nal)-(Bn)-(D-Glu)-(Glu)-FN], in the test on LNCaP cells, the Cell surface is reported as 5.3 % ID/10^5 cells, the Internalised worked out at 2.1 % ID/10^5 cells and the Internalized fraction is 28%.

In the test with LNCaP cells, `O=C(O)CCC(NC(=O)NC(CCCCNC(=O)C(Cc1ccc2ccccc2c1)NC(=O)c1ccc(CNC(=O)C(CNC(=O)c2ccc([18F])nc2)S(=O)(=O)O)cc1)C(=O)O)C(=O)O` (stereo not drawn) [PSMA-1026, (Glu)-(Urea)-(Lys)-(2-Nal)-(Bn)-(Sala)-FN] yielded a Cell surface of 1.3 % ID/10^5 cells, an Internalised of 1.3 % ID/10^5 cells and an Internalized fraction of 50%.

In the test with LNCaP cells, `O=C(O)CCC(NC(=O)NC(CCCCNC(=O)C(Cc1ccc2ccccc2c1)NC(=O)c1ccc(CNC(=O)C(CNC(=O)C(CNC(=O)c2ccc([18F])nc2)S(=O)(=O)O)S(=O)(=O)O)cc1)C(=O)O)C(=O)O` (stereo not drawn) [PSMA-1027, (Glu)-(Urea)-(Lys)-(2-Nal)-(Bn)-(Sala)-(Sala)-FN] displayed a Cell surface of 0.9 % ID/10^5 cells, an Internalised of 1.4 % ID/10^5 cells and an Internalized fraction of 60%.
